Test system: patients with refractory metastatic colorectal cancer (mCRC)
Test: PFS, OS and disease control in the training (evaluation) cohort of refractory mCRC patients receiving TAS-102 (n=52, Japan), by baseline characteristics, SNP genotype and toxicity
Assay type: in vivo, human
Details: for OS HR (95% CI)‡ / PFS HR (95% CI) ‡: multivariable; for OS HR (95% CI)† / PFS HR (95% CI) † / OS HR (95% CI) / PFS HR (95% CI): univariate
Procedure: All patients underwent the treatment in salvage-line setting. […]
Genomic DNA was extracted from peripheral whole blood in patients of all cohorts using the QIAmp Kit (Qiagen, Valencia, Calif., USA) according to the manufacturer's protocol (www.qiagen.com). The candidate SNPs were genotyped using PCR-based direct DNA sequence analysis by ABI 3100A Capillary Genetic Analyzer and Sequencing Scanner v1.0 (Applied Biosystems). Amplification of extracted DNA was carried out using both forward and reverse primers for each gene polymorphism as shown in Table 1. […] The investigators analyzing SNPs were blinded to the clinical data of the study patients.
The primary endpoint in this study was progression-free survival (PFS), and the secondary endpoints were overall survival (OS) and disease control rate (DCR). PFS was calculated from the date of starting treatment to the first observation of disease progression or death from any cause. If a patient had no disease progression or death, PFS was censored at the date of last follow up. OS was calculated from the date of starting treatment until the date of death from any cause or the date of the last follow-up, at which point OS was censored. The disease control rate (DCR) was defined as the proportion of patients who achieved a stable disease (SD) or […] according to RECISTv1.1. Chi-square test was used to examine the difference in baseline patient characteristics among the three cohorts. Allelic distribution of all SNPs by ethnicity for deviation from Hardy-Weinberg equilibrium and the allelic frequencies of SNPs were tested using the Chi-square tests with one degree of freedom. The associations between candidate SNPs and disease control, and toxicities were examined using contingency tables and Fisher's exact test. The associations of SNPs with PFS and OS were analysed using Kaplan-Meier curves and the log-rank test. Because the true mode of inheritance of candidate SNPs was not established yet, a codominant or dominant genetic model if appropriate was considered.
All patients underwent the treatment in salvage-line setting. […] In all patients, adverse events were graded according to the Common Terminology Criteria for Adverse Events, version 4.0. […]
Genomic DNA was extracted from peripheral whole blood in patients of all cohorts using the QIAmp Kit (Qiagen, Valencia, Calif., USA) according to the manufacturer's protocol (www.qiagen.com). The candidate SNPs were tested using PCR-based direct DNA sequence analysis by ABI 3100A Capillary Genetic Analyzer and Sequencing Scanner v1.0 (Applied Biosystems). […] The investigators analyzing SNPs were blinded to the clinical data.
The primary endpoint in this study was progression-free survival (PFS), and the secondary endpoints were overall survival (OS) and disease control rate (DCR).

[1] = Che1 rs1564796 T/C and C/C grouped together
[2] = Che1 rs1564796 T/C and C/C grouped vs T/T
[3] = Evaluation cohort, Anemia grade <3
[4] = Evaluation cohort, Anemia grade ≥3
[5] = Evaluation cohort, Anemia grade ≥3 vs <3
[6] = Evaluation cohort, Anorexia grade <3
[7] = Evaluation cohort, Anorexia grade ≥3
[8] = Evaluation cohort, Anorexia grade ≥3 vs <3
[9] = Evaluation cohort, Diarrhea grade <3
[10] = Evaluation cohort, Diarrhea grade ≥3
[11] = Evaluation cohort, Diarrhea grade ≥3 vs <3
[12] = Evaluation cohort, Leukopenia grade <3
[13] = Evaluation cohort, Leukopenia grade ≥3
[14] = Evaluation cohort, Leukopenia grade ≥3 vs <3
[15] = Evaluation cohort, Nausea grade <3
[16] = Evaluation cohort, Nausea grade ≥3
[17] = Evaluation cohort, Nausea grade ≥3 vs <3
[18] = Evaluation cohort, Neutropenia grade <3
[19] = Evaluation cohort, Neutropenia grade ≥3
[20] = Evaluation cohort, Neutropenia grade ≥3 vs <3
[21] = FANCD2 rs6792811 G/A and G/G grouped together
[22] = FANCD2 rs6792811 G/A and G/G grouped vs A/A

For Trifluridine/tipiracil [TAS-102], the “OS HR (95% CI)‡” value (CHEK2 rs22236142 G/C vs G/G) was 0.55 (0.19, 1.58), the “PFS HR (95% CI) ‡” value (CHEK2 rs22236142 G/C vs G/G) was 1.13 (0.55, 2.34) and the “OS HR (95% CI)†” value (CHEK2 rs22236142 G/C vs G/G) was 0.78 (0.29, 2.11). The “PFS HR (95% CI) †” value (CHEK2 rs22236142 G/C vs G/G) was 1.43 (0.72, 2.84), the “OS median, months (95% CI)” value (CHEK2 rs22236142 G/G) was 8.1 (4.4, 14.8+) months and the “PFS median, months (95% CI)” value (CHEK2 rs22236142 G/G) was 2.9 (1.6, 4.9) months. The “OS median, months (95% CI)” value (Che1 rs1045056 T/C) was 12.4 (5.3, 12.4+) months, the “PFS median, months (95% CI)” value (Che1 rs1045056 T/C) was 2.1 (1.2, 4.2) months and the “OS HR (95% CI)‡” value (Che1 rs1045056 T/C vs T/T) was 0.60 (0.19, 1.85). The “PFS HR (95% CI) ‡” value (Che1 rs1045056 T/C vs T/T) was 1.70 (0.80, 3.64), the “OS HR (95% CI)†” value (Che1 rs1045056 T/C vs T/T) was 0.55 (0.18, 1.63) and the “PFS HR (95% CI) †” value (Che1 rs1045056 T/C vs T/T) was 1.25 (0.61, 2.57). The “OS median, months (95% CI)” value (Che1 rs1045056 T/T) was 7.2 (5.4, 15.6+) months, the “PFS median, months (95% CI)” value (Che1 rs1045056 T/T) was 2.9 (1.9, 3.5) months and the “OS median, months (95% CI)” value [1] was 12.4 (5.3, 12.4+) months. For the same substance, the “PFS median, months (95% CI)” value [1] was 2.1 (1.2, 4.6) months, the “OS HR (95% CI)‡” value [2] was 0.60 (0.19, 1.87) and the “PFS HR (95% CI) ‡” value [2] was 1.41 (0.65, 3.07). The “OS HR (95% CI)†” value [2] was 0.56 (0.19, 1.68), the “PFS HR (95% CI) †” value [2] was 1.17 (0.57, 2.40) and the “OS median, months (95% CI)” value (Che1 rs1564796 T/T) was 7.2 (5.4, 15.6+) months. For the same substance, the “PFS median, months (95% CI)” value (Che1 rs1564796 T/T) was 2.9 (2.0, 3.5) months, the “OS median, months (95% CI)” value [3] was 8.3 (5.7, 15.6+) months and the “PFS median, months (95% CI)” value [3] was 2.5 (2.0, 3.4) months. The “OS median, months (95% CI)” value [4] was 6.3 (2.0, 14.8+) months, the “PFS median, months (95% CI)” value [4] was 3.4 (1.5, 6.0+) months and the “OS HR (95% CI)” value [5] was 1.87 (0.74, 4.74). The “PFS HR (95% CI)” value [5] was 0.70 (0.32, 1.53), the “OS median, months (95% CI)” value [6] was 8.1 (5.7, 12.4+) months and the “PFS median, months (95% CI)” value [6] was 2.9 (2.1, 3.4) months. The “OS median, months (95% CI)” value [7] was 8.7 (1.4, 15.6+) months, the “PFS median, months (95% CI)” value [7] was 2.7 (0.9, 11.3) months and the “OS HR (95% CI)” value [8] was 0.85 (0.27, 2.69). The “PFS HR (95% CI)” value [8] was 0.67 (0.27, 1.69), the “OS median, months (95% CI)” value [9] was 8.3 (6.3, 12.4) months and the “PFS median, months (95% CI)” value [9] was 2.5 (2.0, 3.4) months. The “OS median, months (95% CI)” value [10] was 5.7 (2.0, 14.8+) months, the “PFS median, months (95% CI)” value [10] was 2.9 (1.8, 6.0+) months and the “OS HR (95% CI)” value [11] was 1.49 (0.49, 4.53). The “PFS HR (95% CI)” value [11] was 0.88 (0.35, 2.26), the “OS median, months (95% CI)” value [12] was 8.3 (4.9, 15.6+) months and the “PFS median, months (95% CI)” value [12] was 2.5 (1.9, 3.5) months. The “OS median, months (95% CI)” value [13] was 8.1 (5.7, 10.7+) months, the “PFS median, months (95% CI)” value [13] was 3.4 (1.6, 4.6) months and the “OS HR (95% CI)” value [14] was 0.73 (0.26, 2.01). The “PFS HR (95% CI)” value [14] was 0.93 (0.45, 1.90), the “OS median, months (95% CI)” value [15] was 8.1 (6.3, 14.8+) months and the “PFS median, months (95% CI)” value [15] was 3.3 (2.3, 3.7) months. For the same substance, the “OS median, months (95% CI)” value [16] was 5.7 (2.7, 12.4) months, the “PFS median, months (95% CI)” value [16] was 1.9 (1.6, 2.7) months and the “OS HR (95% CI)” value [17] was 1.58 (0.65, 3.83). The “PFS HR (95% CI)” value [17] was 1.24 (0.62, 2.49), the “OS median, months (95% CI)” value [18] was 6.3 (3.4, 15.6+) months and the “PFS median, months (95% CI)” value [18] was 2.1 (1.8, 3.0) months. For the same substance, the “OS median, months (95% CI)” value [19] was 8.3 (6.3, 14.8+) months, the “PFS median, months (95% CI)” value [19] was 3.4 (1.8, 4.9) months and the “OS HR (95% CI)” value [20] was 0.59 (0.24, 1.43). For the same substance, the “PFS HR (95% CI)” value [20] was 0.68 (0.37, 1.28), the “OS median, months (95% CI)” value (FANCD2 rs2272125 T/G) was 7.2 (2.7, 7.8+) months and the “PFS median, months (95% CI)” value (FANCD2 rs2272125 T/G) was 2.8 (1.6, 6.6+) months. For the same substance, the “OS HR (95% CI)‡” value (FANCD2 rs2272125 T/G vs T/T) was 1.38 (0.39, 4.90), the “PFS HR (95% CI) ‡” value (FANCD2 rs2272125 T/G vs T/T) was 0.91 (0.35, 2.35) and the “OS HR (95% CI)†” value (FANCD2 rs2272125 T/G vs T/T) was 1.66 (0.47, 5.83). For the same substance, the “PFS HR (95% CI) †” value (FANCD2 rs2272125 T/G vs T/T) was 0.98 (0.38, 2.51), the “OS median, months (95% CI)” value (FANCD2 rs2272125 T/T) was 8.3 (5.7, 15.6+) months and the “PFS median, months (95% CI)” value (FANCD2 rs2272125 T/T) was 2.7 (2.1, 3.4) months. For the same substance, the “OS median, months (95% CI)” value (FANCD2 rs6792811 A/A) was 8.7 (5.4, 14.8+) months, the “PFS median, months (95% CI)” value (FANCD2 rs6792811 A/A) was 2.9 (2.1, 4.2) months and the “OS median, months (95% CI)” value [21] was 7.2 (3.3, 15.6+) months. For the same substance, the “PFS median, months (95% CI)” value [21] was 2.1 (1.5, 3.4) months, the “OS HR (95% CI)‡” value [22] was 1.17 (0.48, 2.87) and the “PFS HR (95% CI) ‡” value [22] was 1.43 (0.74, 2.74). For the same substance, the “OS HR (95% CI)†” value [22] was 1.27 (0.52, 3.08), the “PFS HR (95% CI) †” value [22] was 1.29 (0.68, 2.47) and the “Median OS (months)” value (JPN TAS-102 cohort, XRCC3 rs861539 G/G (n = 35)) was 6.3 months. For the same substance, the “OS median, months (95% CI)” value (PCNA rs25406 A/A) was 8.7 (5.3, 10.7+) months, the “PFS median, months (95% CI)” value (PCNA rs25406 A/A) was 2.5 (1.4, 4.6) months and the “OS HR (95% CI)‡” value (PCNA rs25406 A/A vs G/G) was 0.55 (0.17, 1.84). The “PFS HR (95% CI) ‡” value (PCNA rs25406 A/A vs G/G) was 0.65 (0.28, 1.51), the “OS HR (95% CI)†” value (PCNA rs25406 A/A vs G/G) was 0.67 (0.21, 2.19) and the “PFS HR (95% CI) †” value (PCNA rs25406 A/A vs G/G) was 0.89 (0.39, 2.03). For the same substance, the “OS median, months (95% CI)” value (PCNA rs25406 Any A) was 8.1 (5.7, 15.6+) months, the “PFS median, months (95% CI)” value (PCNA rs25406 Any A) was 3.3 (2.1, 3.5) months and the “OS HR (95% CI)‡” value (PCNA rs25406 Any A vs G/G) was 0.54 (0.22, 1.35). For the same substance, the “PFS HR (95% CI) ‡” value (PCNA rs25406 Any A vs G/G) was 0.53 (0.27, 1.06), the “OS HR (95% CI)†” value (PCNA rs25406 Any A vs G/G) was 0.64 (0.26, 1.56) and the “PFS HR (95% CI) †” value (PCNA rs25406 Any A vs G/G) was 0.74 (0.39, 1.42). For the same substance, the “OS median, months (95% CI)” value (PCNA rs25406 G/A) was 8.1 (5.7, 15.6+) months, the “PFS median, months (95% CI)” value (PCNA rs25406 G/A) was 3.4 (1.9, 3.7) months and the “OS HR (95% CI)‡” value (PCNA rs25406 G/A vs G/G) was 0.54 (0.19, 1.52). The “PFS HR (95% CI) ‡” value (PCNA rs25406 G/A vs G/G) was 0.46 (0.21, 1.02).
